This note sets out measurements from patent US11572590B2, “Methods for evaluating tumor cell spheroids using 3D microfluidic cell culture device” (Dana-Farber Cancer Institute, Inc., priority 2017, dated 2023).

Like-named read-outs stand apart in the source and are kept apart here.

What all share (test): SelectScreen Kinase Profiling, single point inhibition and IC50 for off-target kinases
Common to all, as to type: biochemical

Assay [1] addresses T1, off-target kinases (Homo sapiens, UniProt P42679).
T1 sequence (P42679 1-507): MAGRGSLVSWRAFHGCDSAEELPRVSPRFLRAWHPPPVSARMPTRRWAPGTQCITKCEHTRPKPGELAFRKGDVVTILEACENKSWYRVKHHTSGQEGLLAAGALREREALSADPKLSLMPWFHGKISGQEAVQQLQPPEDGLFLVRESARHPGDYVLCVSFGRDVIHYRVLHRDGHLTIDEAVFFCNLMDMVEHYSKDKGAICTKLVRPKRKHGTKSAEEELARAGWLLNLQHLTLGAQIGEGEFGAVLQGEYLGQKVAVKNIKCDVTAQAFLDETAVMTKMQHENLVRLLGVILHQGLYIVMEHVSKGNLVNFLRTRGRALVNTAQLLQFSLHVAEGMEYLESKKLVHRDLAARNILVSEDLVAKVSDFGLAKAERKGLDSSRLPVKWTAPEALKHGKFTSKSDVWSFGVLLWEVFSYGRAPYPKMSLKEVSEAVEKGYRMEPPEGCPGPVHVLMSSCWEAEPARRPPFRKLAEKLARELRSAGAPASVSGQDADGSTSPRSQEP
The following applies: MATK (HYL), ZLYTE, ATP Km app.

The target of assay [2] is off-target kinases (Homo sapiens, UniProt Q02763, R849W). The following applies: TEK (TIE2) R849W, mutant y, LanthaScreen Binding. (In general: Time-resolved FRET reads energy transfer from a long-lived donor to a nearby acceptor.)
In assay [3] the target is off-target kinases (Homo sapiens, UniProt Q07912). The note with it: TNK2 (ACK), LanthaScreen Binding.
In assay [4] the target is off-target kinases (Homo sapiens, UniProt Q8IU85). The following applies: CAMK1D (CaMKI delta), ZLYTE, ATP Km app.
Assay [5] has as its target T2, off-target kinases (Homo sapiens, UniProt Q99759).
T2 sequence (Q99759 1-626): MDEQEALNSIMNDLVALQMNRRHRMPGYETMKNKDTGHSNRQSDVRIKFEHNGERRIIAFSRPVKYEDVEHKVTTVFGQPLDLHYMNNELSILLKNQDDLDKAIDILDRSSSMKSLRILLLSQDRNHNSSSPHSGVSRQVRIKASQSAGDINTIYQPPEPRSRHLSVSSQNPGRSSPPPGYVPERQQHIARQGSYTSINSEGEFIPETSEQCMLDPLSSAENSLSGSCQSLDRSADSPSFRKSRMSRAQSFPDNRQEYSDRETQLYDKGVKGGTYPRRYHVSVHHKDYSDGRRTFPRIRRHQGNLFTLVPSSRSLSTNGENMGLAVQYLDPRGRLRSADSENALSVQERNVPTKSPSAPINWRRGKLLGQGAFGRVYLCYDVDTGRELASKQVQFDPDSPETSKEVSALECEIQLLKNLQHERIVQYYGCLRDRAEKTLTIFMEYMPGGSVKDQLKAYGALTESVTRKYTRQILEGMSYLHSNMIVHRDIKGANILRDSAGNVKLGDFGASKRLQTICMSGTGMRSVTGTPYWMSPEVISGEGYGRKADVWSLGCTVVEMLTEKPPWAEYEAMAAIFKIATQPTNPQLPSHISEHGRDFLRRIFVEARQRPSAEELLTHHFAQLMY
The following applies: MAP3K3 (MEKK3), LanthaScreen Binding.

off-target kinases (Homo sapiens, UniProt Q02763, R849W), sequence (Q02763 23-1124 R849W): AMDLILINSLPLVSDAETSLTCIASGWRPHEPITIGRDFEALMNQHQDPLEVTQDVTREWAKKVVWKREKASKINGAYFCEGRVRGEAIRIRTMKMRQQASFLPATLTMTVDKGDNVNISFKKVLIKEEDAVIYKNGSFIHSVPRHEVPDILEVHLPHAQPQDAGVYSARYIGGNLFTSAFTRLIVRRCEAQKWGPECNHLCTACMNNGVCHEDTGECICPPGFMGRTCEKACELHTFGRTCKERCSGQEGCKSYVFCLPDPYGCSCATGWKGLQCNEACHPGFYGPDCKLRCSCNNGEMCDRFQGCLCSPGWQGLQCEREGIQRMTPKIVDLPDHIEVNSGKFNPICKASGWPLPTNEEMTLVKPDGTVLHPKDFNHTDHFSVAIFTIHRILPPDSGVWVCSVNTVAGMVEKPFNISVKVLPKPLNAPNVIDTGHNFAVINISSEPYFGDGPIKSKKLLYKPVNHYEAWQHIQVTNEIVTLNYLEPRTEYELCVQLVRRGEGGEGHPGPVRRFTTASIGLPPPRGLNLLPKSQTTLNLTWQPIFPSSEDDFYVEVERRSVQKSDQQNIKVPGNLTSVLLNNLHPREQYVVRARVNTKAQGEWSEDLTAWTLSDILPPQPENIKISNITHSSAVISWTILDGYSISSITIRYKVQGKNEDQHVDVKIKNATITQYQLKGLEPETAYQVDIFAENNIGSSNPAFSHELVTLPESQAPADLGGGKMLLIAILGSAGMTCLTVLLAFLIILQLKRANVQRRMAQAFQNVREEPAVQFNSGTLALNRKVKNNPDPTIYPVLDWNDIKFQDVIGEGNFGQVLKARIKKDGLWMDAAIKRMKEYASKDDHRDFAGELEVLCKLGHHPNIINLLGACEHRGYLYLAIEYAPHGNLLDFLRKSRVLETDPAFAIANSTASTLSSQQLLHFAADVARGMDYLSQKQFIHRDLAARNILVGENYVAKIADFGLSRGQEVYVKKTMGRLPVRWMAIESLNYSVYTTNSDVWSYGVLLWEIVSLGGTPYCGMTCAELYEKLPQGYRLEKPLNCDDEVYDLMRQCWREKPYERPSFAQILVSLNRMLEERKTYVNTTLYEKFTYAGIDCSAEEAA
off-target kinases (Homo sapiens, UniProt Q8IU85), sequence (Q8IU85 whole entry): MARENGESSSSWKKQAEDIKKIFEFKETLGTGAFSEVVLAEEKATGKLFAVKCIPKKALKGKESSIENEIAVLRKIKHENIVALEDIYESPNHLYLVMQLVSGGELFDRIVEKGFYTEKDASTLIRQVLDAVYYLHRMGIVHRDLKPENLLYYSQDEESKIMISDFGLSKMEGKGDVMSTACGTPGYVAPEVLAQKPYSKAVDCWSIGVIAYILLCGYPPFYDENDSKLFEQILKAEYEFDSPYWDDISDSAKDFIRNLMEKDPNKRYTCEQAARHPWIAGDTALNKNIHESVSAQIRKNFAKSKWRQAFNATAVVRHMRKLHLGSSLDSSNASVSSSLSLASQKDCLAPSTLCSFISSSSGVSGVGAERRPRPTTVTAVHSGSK
off-target kinases (Homo sapiens, UniProt Q07912), sequence (Q07912 whole entry): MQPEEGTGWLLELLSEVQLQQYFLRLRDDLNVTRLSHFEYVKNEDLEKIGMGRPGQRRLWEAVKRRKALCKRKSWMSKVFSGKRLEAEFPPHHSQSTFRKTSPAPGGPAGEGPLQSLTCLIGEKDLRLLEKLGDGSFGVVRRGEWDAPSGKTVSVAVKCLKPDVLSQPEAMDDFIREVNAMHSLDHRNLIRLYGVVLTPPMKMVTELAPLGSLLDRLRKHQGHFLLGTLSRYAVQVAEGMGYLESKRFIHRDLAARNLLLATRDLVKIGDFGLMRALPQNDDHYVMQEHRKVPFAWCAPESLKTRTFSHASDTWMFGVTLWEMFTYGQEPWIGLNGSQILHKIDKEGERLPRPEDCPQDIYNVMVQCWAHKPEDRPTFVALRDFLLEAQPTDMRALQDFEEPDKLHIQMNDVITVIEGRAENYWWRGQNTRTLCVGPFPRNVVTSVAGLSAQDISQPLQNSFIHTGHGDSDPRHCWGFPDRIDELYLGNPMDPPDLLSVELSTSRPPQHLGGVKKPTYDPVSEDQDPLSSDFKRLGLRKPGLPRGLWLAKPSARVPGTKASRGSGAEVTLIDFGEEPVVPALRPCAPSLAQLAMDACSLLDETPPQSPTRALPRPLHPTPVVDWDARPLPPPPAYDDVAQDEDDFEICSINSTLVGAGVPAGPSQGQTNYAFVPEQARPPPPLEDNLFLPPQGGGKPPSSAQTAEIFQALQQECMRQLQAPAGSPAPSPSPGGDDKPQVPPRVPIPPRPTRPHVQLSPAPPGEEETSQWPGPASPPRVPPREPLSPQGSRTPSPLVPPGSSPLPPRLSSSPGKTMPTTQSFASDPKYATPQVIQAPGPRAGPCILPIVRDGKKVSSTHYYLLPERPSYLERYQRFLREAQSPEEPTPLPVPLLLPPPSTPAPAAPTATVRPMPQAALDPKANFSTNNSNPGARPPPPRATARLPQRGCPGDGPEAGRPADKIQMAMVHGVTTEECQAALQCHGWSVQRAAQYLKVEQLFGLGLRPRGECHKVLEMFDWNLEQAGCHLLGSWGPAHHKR

The term inhibition denotes the relative decrease from the control value, in per cent. With `N#Cc1cc(-c2ncnc(Nc3ccc(N4CCN(C5COC5)CC4)cc3)n2)ccc1OC1CCOCC1` [Compound 1, 5-(4-((4-(4-(oxetan-3-yl)piperazin-1-yl)phenyl)amino)-1,3,5-triazin-2-yl)-2-((tetrahydro-2H-pyran-4-yl)oxy)benzonitrile], the inhibition in assay [1] (read-out: % Inhibition 1) is 1%; in assay [1] (read-out: % Inhibition 2) it was 2%; in assay [1] (read-out: % Inhibition Avg), 2%; in assay [2] (read-out: % Inhibition 1) it was 40%; in assay [2] (read-out: % Inhibition 2), 41%; in assay [2] (read-out: % Inhibition Avg), 41%. Further, the inhibition stood at 25% in assay [3] (read-out: % Inhibition 1); 26% in assay [3] (read-out: % Inhibition 2); 25% in assay [3] (read-out: % Inhibition Avg); 12% in assay [4] (read-out: % Inhibition 1); 13% in assay [4] (read-out: % Inhibition 2); 12% in assay [4] (read-out: % Inhibition Avg). Moreover, the results for the inhibition in assay [5] (read-out: % Inhibition 1), in assay [5] (read-out: % Inhibition 2) and in assay [5] (read-out: % Inhibition Avg) were 10%, 13% and 12%, respectively.
